Data as given in BindingDB's records for doi:10.1016/j.bmcl.2005.05.116 (Merck Frosst Canada, 2005).

Legend:
Assay in all cases: Caspase Inhibition Assay
[1] = target: T1, Caspase-7 (Homo sapiens, UniProt P55210)
T1 sequence (P55210 whole entry): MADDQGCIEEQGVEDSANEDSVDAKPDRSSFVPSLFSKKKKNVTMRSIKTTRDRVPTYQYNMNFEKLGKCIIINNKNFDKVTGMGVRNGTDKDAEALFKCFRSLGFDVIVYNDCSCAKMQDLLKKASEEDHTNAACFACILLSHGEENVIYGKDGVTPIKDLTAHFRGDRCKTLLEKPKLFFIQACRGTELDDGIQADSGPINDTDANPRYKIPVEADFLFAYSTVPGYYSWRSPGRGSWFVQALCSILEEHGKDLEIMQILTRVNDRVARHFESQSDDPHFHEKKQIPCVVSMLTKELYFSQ
Procedure: (§1) The substrate peptides terminating in AMC are processed by caspases with or without inhibitors, and the accumulation of AMC was assessed with a Cytofluor fluorescent plate reader at excitation and emission wavelengths of 380 and 460 nm. Compounds were tested, and full IC50 curves were run for all compounds expressing measurable inhibitory activity.

[2] = target: T2, Caspase-3 (Homo sapiens, UniProt P42574)
T2 sequence (P42574 whole entry): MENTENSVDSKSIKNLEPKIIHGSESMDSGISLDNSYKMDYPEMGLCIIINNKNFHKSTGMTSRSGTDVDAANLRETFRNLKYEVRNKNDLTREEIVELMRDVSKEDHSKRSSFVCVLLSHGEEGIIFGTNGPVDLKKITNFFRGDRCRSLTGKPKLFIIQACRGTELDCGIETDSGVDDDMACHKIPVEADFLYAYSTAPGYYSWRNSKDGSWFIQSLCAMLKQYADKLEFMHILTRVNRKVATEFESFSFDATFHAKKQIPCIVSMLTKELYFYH
Procedure: as §1

[3] = target: T3, Caspase-1 (Homo sapiens, UniProt P29466)
T3 sequence (P29466 whole entry): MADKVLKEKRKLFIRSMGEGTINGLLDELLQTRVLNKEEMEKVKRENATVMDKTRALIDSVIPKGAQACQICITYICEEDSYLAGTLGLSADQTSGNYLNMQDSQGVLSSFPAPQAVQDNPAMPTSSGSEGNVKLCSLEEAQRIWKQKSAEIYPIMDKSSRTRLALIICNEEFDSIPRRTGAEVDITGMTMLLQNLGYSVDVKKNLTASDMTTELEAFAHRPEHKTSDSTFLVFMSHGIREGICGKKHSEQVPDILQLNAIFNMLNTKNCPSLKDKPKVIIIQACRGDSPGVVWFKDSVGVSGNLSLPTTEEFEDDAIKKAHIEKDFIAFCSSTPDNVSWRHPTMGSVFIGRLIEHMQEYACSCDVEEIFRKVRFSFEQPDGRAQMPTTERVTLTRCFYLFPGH
Procedure: as §1

[4] = target: Caspase-8 (Homo sapiens, UniProt Q14790)
Procedure: as §1

Chain of Caspase-8 (Q14790 217-374 limits assumed): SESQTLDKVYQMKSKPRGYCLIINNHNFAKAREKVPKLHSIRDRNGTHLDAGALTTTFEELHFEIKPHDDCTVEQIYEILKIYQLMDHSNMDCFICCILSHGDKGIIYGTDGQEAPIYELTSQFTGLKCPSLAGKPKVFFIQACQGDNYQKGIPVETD
Chain of Caspase-8 (Q14790 385-479 limits assumed): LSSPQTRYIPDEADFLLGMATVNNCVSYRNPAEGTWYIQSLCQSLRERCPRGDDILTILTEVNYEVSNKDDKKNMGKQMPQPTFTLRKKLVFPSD

| SMILES | IC50 [1] [nM] | IC50 ([2]; pH 7, 37 °C) [nM] | IC50 [3] [nM] | IC50 [4] [nM] | IC50 [2] [nM] |
| --- | --- | --- | --- | --- | --- |
| C=CC[C@H](C(=O)N[C@H](C(=O)N[C@@H](CC(=O)O)C(=O)CSCc1ccccc1)C(C)C)c1cc(Br)ccc1OC [(3S)-5-(benzylsulfanyl)-3-[(2S)-2-[(2S)-2-(5-bromo-2-methoxyphenyl)pent-4-enamido]-3-methylbutanamido]-4-oxopentanoic acid] | 2210 | 80 | 6510 | 1620 | – |
| COc1ccc(-c2nc(C)no2)cc1C(O)C(=O)N[C@H](C(=O)N[C@@H](CC(=O)O)C(=O)CSCc1ccccc1)C(C)C (stereo partly drawn) [(3S)-5-(benzylsulfanyl)-3-[(2S)-2-{2-hydroxy-2-[2-methoxy-5-(3-methyl-1,2,4-oxadiazol-5-yl)phenyl]acetamido}-3-methylbutanamido]-4-oxopentanoic acid] | 63 | – | 2460 | 280 | 12 |
| COc1ccc(Br)cc1C1(C(=O)N[C@H](C(=O)N[C@@H](CC(=O)O)C(=O)CSCc2ccccc2)C(C)C)CC1 [(3S)-5-(benzylsulfanyl)-3-[(2S)-2-{[1-(5-bromo-2-methoxyphenyl)cyclopropyl]formamido}-3-methylbutanamido]-4-oxopentanoic acid] | > 10000 | 323 | > 10000 | > 10000 | – |
| COc1ccc(Br)cc1[C@@H](C(=O)N[C@H](C(=O)N[C@@H](CC(=O)O)C(=O)CSCc1ccccc1)C(C)C)C(C)C [(3S)-5-(benzylsulfanyl)-3-[(2S)-2-[(2S)-2-(5-bromo-2-methoxyphenyl)-3-methylbutanamido]-3-methylbutanamido]-4-oxopentanoic acid] | > 10000 | 9440 | > 10000 | 1320 | – |
| CCC[C@H](C(=O)N[C@H](C(=O)N[C@@H](CC(=O)O)C(=O)CSCc1ccccc1)C(C)C)c1cc(Br)ccc1OC [(3S)-5-(benzylsulfanyl)-3-[(2S)-2-[(2S)-2-(5-bromo-2-methoxyphenyl)pentanamido]-3-methylbutanamido]-4-oxopentanoic acid] | 5300 | 274 | > 10000 | 4500 | – |
| COc1ccc(C(C)=O)cc1C(O)C(=O)N[C@H](C(=O)N[C@@H](CC(=O)O)C(=O)CSCc1ccccc1)C(C)C (stereo partly drawn) [(3S)-5-(benzylsulfanyl)-3-[(2S)-2-[2-(5-acetyl-2-methoxyphenyl)-2-hydroxyacetamido]-3-methylbutanamido]-4-oxopentanoic acid] | 290 | – | 4850 | 635 | 16 |
| COc1ccc(I)cc1C(O)C(=O)N[C@H](C(=O)N[C@@H](CC(=O)O)C(=O)CSCc1ccccc1)C(C)C (stereo partly drawn) [(3S)-5-(benzylsulfanyl)-3-[(2S)-2-[2-hydroxy-2-(5-iodo-2-methoxyphenyl)acetamido]-3-methylbutanamido]-4-oxopentanoic acid] | 135 | – | 675 | 98 | 16 |
| COc1ccc(Br)cc1[C@H](C)C(=O)N[C@H](C(=O)N[C@@H](CC(=O)O)C(=O)CSCc1ccccc1)C(C)C [(3S)-5-(benzylsulfanyl)-3-[(2S)-2-[(2S)-2-(5-bromo-2-methoxyphenyl)propanamido]-3-methylbutanamido]-4-oxopentanoic acid] | 3690 | 176 | > 10000 | 5380 | – |
| C#CC[C@H](C(=O)N[C@H](C(=O)N[C@@H](CC(=O)O)C(=O)CSCc1ccccc1)C(C)C)c1cc(Br)ccc1OC [(3S)-5-(benzylsulfanyl)-3-[(2S)-2-[(2S)-2-(5-bromo-2-methoxyphenyl)pent-4-ynamido]-3-methylbutanamido]-4-oxopentanoic acid] | 3620 | 341 | > 10000 | 4470 | – |
| COc1ccc(Br)cc1C(O)C(=O)N[C@H](C(=O)N[C@@H](CC(=O)O)C(=O)CSCc1ccccc1)C(C)C (stereo partly drawn) [(3S)-5-(benzylsulfanyl)-3-[(2S)-2-[2-(5-bromo-2-methoxyphenyl)-2-hydroxyacetamido]-3-methylbutanamido]-4-oxopentanoic acid] | 91 | – | 1540 | 104 | 5 |
| COc1ccc(Br)cc1[C@H](Cc1ccccc1)C(=O)N[C@H](C(=O)N[C@@H](CC(=O)O)C(=O)CSCc1ccccc1)C(C)C [(3S)-5-(benzylsulfanyl)-3-[(2S)-2-[(2S)-2-(5-bromo-2-methoxyphenyl)-3-phenylpropanamido]-3-methylbutanamido]-4-oxopentanoic acid] | 4200 | 181 | 5810 | 5830 | – |
| COc1ccc(OC)c(C(O)C(=O)N[C@H](C(=O)N[C@@H](CC(=O)O)C(=O)CSCc2ccccc2)C(C)C)c1 (stereo partly drawn) [(3S)-5-(benzylsulfanyl)-3-[(2S)-2-[2-(2,5-dimethoxyphenyl)-2-hydroxyacetamido]-3-methylbutanamido]-4-oxopentanoic acid] | 545 | – | 4490 | 975 | 29 |
